Target: Nicotinamide phosphoribosyltransferase (Homo sapiens, UniProt P43490)
Assay: Measurement of NamPT Inhibitory Ability IC50
Protocol: To test the effect of the compound prepared in each Example on the substrate decomposition rate (Vmax/min) mediated by NamPT enzyme, IC50 was calculated. In this experiment, the NamPT colorimetric assay kit (ab221819) produced by Abcam was used, and Graph prism software was used for IC50 calculation. PRPP, ATP, NMNAT1, NamPT recombinant proteins, and various concentrations of the compound of each Example (half-log step dilution from 100 μM) were added to nicotinamide to synthesize nicotinamide adenine dinucleotide (NAD) from the nicotinamide, and a total of 60 μL of the reaction solution was reacted at room temperature for 1 hour. WST-1 formazan converted by NAD generated by adding WST-1 was measured. The result of the reaction was obtained by the following formula by measuring absorbance using EnVision2105 (PerkinElmer) at 450 nm for 60 minutes at 2-minute intervals.

Chain of Nicotinamide phosphoribosyltransferase (P43490 whole entry): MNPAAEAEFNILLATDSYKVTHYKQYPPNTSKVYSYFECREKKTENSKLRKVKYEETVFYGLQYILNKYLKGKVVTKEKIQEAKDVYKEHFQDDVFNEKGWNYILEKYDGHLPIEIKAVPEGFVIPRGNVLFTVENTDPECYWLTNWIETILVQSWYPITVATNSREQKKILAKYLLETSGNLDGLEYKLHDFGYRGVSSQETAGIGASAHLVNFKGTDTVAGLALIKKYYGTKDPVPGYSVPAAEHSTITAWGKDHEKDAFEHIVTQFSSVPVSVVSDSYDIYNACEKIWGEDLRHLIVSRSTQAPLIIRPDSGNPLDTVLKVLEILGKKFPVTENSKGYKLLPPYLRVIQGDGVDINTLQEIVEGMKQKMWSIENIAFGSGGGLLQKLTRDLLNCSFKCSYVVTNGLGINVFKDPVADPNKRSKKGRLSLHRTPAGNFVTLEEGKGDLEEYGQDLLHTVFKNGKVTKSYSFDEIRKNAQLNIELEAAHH

Row | IC50 | Structure (SMILES)
1 | < 50 nM | CC(C)c1ccc2nc(-c3ccc(CNC(=O)c4cnc5nccn5c4)cc3)oc2c1
2 | < 50 nM | CS(=O)(=O)Nc1ccc2oc(-c3ccc(CNC(=O)c4cnc5nccn5c4)cc3)nc2c1 [US20260022122, Example 47]
3 | < 50 nM | Cc1ccc2sc(-c3ccc(CNC(=O)c4cnc5nccn5c4)cc3)nc2c1 [US20260022122, Example 48]
